Source: US20250271426A1, “REDUCTION OF BITTER TASTE OF ACTIVE PHARMACEUTICAL INGREDIENTS AND RELATED ASSAYS AND SCREENING METHODS” (Firmenich Incorporated, priority 2022, published 2025)

Legend:
Test in all cases: FLIPR calcium assay, cells with promiscuous G protein transfected with bitter receptor cDNA
Format in all cases: cell-based
Settings in all cases: responsive if cellular response of >10% over baseline, Fluo4-AM
[1] = biological target: T1, T2R receptor SEQ ID NO: 1 (S1) (Homo sapiens, UniProt Q9NYW7)
T1 construct: expressed in transfected cells; host or cells: cells expressing a promiscuous G protein (e.g., G16g44)
T1 sequence (Q9NYW7 1-299): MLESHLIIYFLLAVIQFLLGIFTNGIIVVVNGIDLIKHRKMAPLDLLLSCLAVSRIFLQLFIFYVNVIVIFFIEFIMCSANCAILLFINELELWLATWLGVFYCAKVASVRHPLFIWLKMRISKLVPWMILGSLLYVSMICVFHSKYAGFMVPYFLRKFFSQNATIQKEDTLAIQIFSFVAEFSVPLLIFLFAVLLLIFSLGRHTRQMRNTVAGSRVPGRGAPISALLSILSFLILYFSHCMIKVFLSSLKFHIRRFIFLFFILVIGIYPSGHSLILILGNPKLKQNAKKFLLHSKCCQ
Method: (§1) Cells expressing a promiscuous G protein (e.g., G16g44) were transfected with vectors encoding 22 functional bitter receptor cDNAs, with one receptor per transfection. The cells were transfected directly in 384-well format high-density plates and incubated for 28 hours. Later, cells were loaded with the Ca-specific dye Fluo4-AM. After an incubation of 60 minutes, excess dye is washed off, and cells are stimulated with respective bitter agonists while simultaneously recording changes in intracellular fluorescence using a FLIPR instrument.
(§2) The above protocol was carried out using 94 different active pharmaceutical ingredients (APIs) that span a wide range of different APIs having a diversity of chemical structures. A particular T2R receptor was identified as being responsive to a particular API if it triggered a cellular response of >10% over baseline.

[2] = biological target: T2, T2R receptor SEQ ID NO: 6 (S6) (Homo sapiens, UniProt P59540)
T2 construct: expressed in transfected cells; host or cells: cells expressing a promiscuous G protein (e.g., G16g44)
T2 sequence (P59540 1-309): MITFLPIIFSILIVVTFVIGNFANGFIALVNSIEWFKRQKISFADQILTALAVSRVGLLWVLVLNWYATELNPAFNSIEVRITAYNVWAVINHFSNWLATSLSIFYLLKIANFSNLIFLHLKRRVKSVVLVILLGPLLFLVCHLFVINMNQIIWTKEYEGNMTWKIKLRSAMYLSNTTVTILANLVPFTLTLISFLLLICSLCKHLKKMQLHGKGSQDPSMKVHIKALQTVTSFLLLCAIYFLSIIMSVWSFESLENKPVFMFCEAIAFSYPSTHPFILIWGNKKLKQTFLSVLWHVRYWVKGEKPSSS
Method: as §1, §2

[3] = biological target: T3, T2R receptor SEQ ID NO: 4 (S4) (Homo sapiens, UniProt Q9NYV8)
T3 construct: expressed in transfected cells; host or cells: cells expressing a promiscuous G protein (e.g., G16g44)
T3 sequence (Q9NYV8 1-317): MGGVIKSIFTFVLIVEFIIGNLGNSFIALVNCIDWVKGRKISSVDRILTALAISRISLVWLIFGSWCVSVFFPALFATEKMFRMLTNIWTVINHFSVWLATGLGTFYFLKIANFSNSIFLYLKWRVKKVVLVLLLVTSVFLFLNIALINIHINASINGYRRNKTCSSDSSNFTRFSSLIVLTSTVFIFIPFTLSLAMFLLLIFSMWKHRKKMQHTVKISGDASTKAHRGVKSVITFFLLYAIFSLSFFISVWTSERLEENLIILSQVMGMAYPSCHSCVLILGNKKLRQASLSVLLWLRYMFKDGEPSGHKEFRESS
Method: as §1, §2

[4] = biological target: T4, T2R receptor SEQ ID NO: 3 (S3) (Homo sapiens, UniProt Q9NYW0, T156M)
T4 construct: expressed in transfected cells; host or cells: cells expressing a promiscuous G protein (e.g., G16g44)
T4 sequence (Q9NYW0 1-307 T156M): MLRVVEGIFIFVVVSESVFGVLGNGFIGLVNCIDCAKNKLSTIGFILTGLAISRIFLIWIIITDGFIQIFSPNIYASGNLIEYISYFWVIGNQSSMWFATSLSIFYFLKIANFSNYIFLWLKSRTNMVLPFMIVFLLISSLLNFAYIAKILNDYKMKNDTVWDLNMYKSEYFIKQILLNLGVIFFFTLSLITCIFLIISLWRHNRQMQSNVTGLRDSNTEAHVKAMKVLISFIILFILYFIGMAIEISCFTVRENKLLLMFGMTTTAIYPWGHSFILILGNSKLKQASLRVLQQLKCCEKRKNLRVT
Method: as §1, §2

Compound	S6 positive response of T2R receptor to API [2]	S4 positive response of T2R receptor to API [3]	S3 positive response of T2R receptor to API [4]	further results
Cc1cc(NS(=O)(=O)c2ccc(N)cc2)no1 [Sulfamethoxazole]				S1 positive response of T2R receptor to API [1]: + (a “+” to indicate whether a particular T2R receptor showed a positive response to a particular API)
CCCCc1ncc(/C=C(\Cc2cccs2)C(=O)O)n1Cc1ccc(C(=O)O)cc1 [Eprosartan]				S1 positive response of T2R receptor to API [1]: + (a “+” to indicate whether a particular T2R receptor showed a positive response to a particular API)
CCn1cc(C(=O)O)c(=O)c2cc(F)c(N3CCNCC3)nc21 [Enoxacin]	+ (a “+” to indicate whether a particular T2R receptor showed a positive response to a particular API)			
Cc1cccn2c(=O)c(-c3nnn[nH]3)cnc12 [Pemirolast]		+ (a “+” to indicate whether a particular T2R receptor showed a positive response to a particular API)		
Nc1ccc(S(=O)(=O)c2ccc(N)cc2)cc1 [Dapsone]			+ (a “+” to indicate whether a particular T2R receptor showed a positive response to a particular API)	
O=C(O)c1cccnc1Nc1cccc(C(F)(F)F)c1 [Niflumic Acid]		+ (a “+” to indicate whether a particular T2R receptor showed a positive response to a particular API)		
COc1ccc(Cc2nccc3cc(OC)c(OC)cc23)cc1OC [Papaverine]		+ (a “+” to indicate whether a particular T2R receptor showed a positive response to a particular API)	+ (a “+” to indicate whether a particular T2R receptor showed a positive response to a particular API)	
O=C(O)Cc1ccccc1Nc1c(Cl)cccc1Cl [Diclofenac]		+ (a “+” to indicate whether a particular T2R receptor showed a positive response to a particular API)		
CCC1=C(C)CN(C(=O)NCCc2ccc(S(=O)(=O)NC(=O)N[C@H]3CC[C@H](C)CC3)cc2)C1=O [Glimepiride]		+ (a “+” to indicate whether a particular T2R receptor showed a positive response to a particular API)		
C[C@]12CCC(=O)C=C1CC[C@@H]1[C@@H]2[C@@H](O)C[C@@]2(C)[C@H]1CC[C@]2(O)C(=O)CO [Hydrocortisone]	+ (a “+” to indicate whether a particular T2R receptor showed a positive response to a particular API)			
C=CC[C@@H]1/C=C(\C)C[C@H](C)C[C@H](OC)[C@H]2O[C@@](O)(C(=O)C(=O)N3CCCC[C@H]3C(=O)O[C@H](/C(C)=C/[C@@H]3CC[C@@H](O)[C@H](OC)C3)[C@H](C)[C@@H](O)CC1=O)[C@H](C)C[C@@H]2OC [Fujimycin]				S1 positive response of T2R receptor to API [1]: + (a “+” to indicate whether a particular T2R receptor showed a positive response to a particular API)
c1ccc(CC2=NCCN2)cc1 [Tolazoline]	+ (a “+” to indicate whether a particular T2R receptor showed a positive response to a particular API)		+ (a “+” to indicate whether a particular T2R receptor showed a positive response to a particular API)	
Cn1c(=O)c2c(ncn2C)n(C)c1=O [Caffeine]	+ (a “+” to indicate whether a particular T2R receptor showed a positive response to a particular API)	+ (a “+” to indicate whether a particular T2R receptor showed a positive response to a particular API)	+ (a “+” to indicate whether a particular T2R receptor showed a positive response to a particular API)	
Cn1cnc([N+](=O)[O-])c1Sc1ncnc2nc[nH]c12 [Azathioprine]	+ (a “+” to indicate whether a particular T2R receptor showed a positive response to a particular API)		+ (a “+” to indicate whether a particular T2R receptor showed a positive response to a particular API)	
O=C(O)c1cn(C2CC2)c2cc(N3CCNCC3)c(F)cc2c1=O [Ciprofloxacin]	+ (a “+” to indicate whether a particular T2R receptor showed a positive response to a particular API)			
CN1CCCC(n2nc(Cc3ccc(Cl)cc3)c3ccccc3c2=O)CC1 (stereo not drawn) [Azelastine]	+ (a “+” to indicate whether a particular T2R receptor showed a positive response to a particular API)		+ (a “+” to indicate whether a particular T2R receptor showed a positive response to a particular API)	
CCN1CCN(Cc2ccc(Nc3ncc(F)c(-c4cc(F)c5nc(C)n(C(C)C)c5c4)n3)nc2)CC1 [Abamaciclib]	+ (a “+” to indicate whether a particular T2R receptor showed a positive response to a particular API)			
COc1ccc(-n2nc(C(N)=O)c3c2C(=O)N(c2ccc(N4CCCCC4=O)cc2)CC3)cc1 [Apixaban]			+ (a “+” to indicate whether a particular T2R receptor showed a positive response to a particular API)	
NS(=O)(=O)c1cc2c(cc1Cl)NCNS2(=O)=O [Hydrochlorothiazide]	+ (a “+” to indicate whether a particular T2R receptor showed a positive response to a particular API)		+ (a “+” to indicate whether a particular T2R receptor showed a positive response to a particular API)	
Clc1ccc(COC(Cn2ccnc2)c2ccc(Cl)cc2Cl)c(Cl)c1 (stereo not drawn) [Micronazole]		+ (a “+” to indicate whether a particular T2R receptor showed a positive response to a particular API)		
COc1ccc(C(CN(C)C)C2(O)CCCCC2)cc1 (stereo not drawn) [Venlafaxine]	+ (a “+” to indicate whether a particular T2R receptor showed a positive response to a particular API)		+ (a “+” to indicate whether a particular T2R receptor showed a positive response to a particular API)	
CCCC(C)(COC(N)=O)COC(=O)NC(C)C (stereo not drawn) [Carisoprodol]		+ (a “+” to indicate whether a particular T2R receptor showed a positive response to a particular API)		
O=C(O)c1ccccc1Nc1cccc(C(F)(F)F)c1 [Flufenamic Acid]		+ (a “+” to indicate whether a particular T2R receptor showed a positive response to a particular API)		
Cc1cccc(Nc2ccccc2C(=O)O)c1C [Mefenamic Acid]		+ (a “+” to indicate whether a particular T2R receptor showed a positive response to a particular API)		
O=C(CCCN1CCC(O)(c2ccc(Cl)cc2)CC1)c1ccc(F)cc1 [Haloperidol]		+ (a “+” to indicate whether a particular T2R receptor showed a positive response to a particular API)	+ (a “+” to indicate whether a particular T2R receptor showed a positive response to a particular API)	
CCN(CC)CC(=O)Nc1c(C)cccc1C [Lidocaine]		+ (a “+” to indicate whether a particular T2R receptor showed a positive response to a particular API)	+ (a “+” to indicate whether a particular T2R receptor showed a positive response to a particular API)	
CN1CCC(C(=O)c2cccc(NC(=O)c3c(F)cc(F)cc3F)n2)CC1 [Lasmitidan]	+ (a “+” to indicate whether a particular T2R receptor showed a positive response to a particular API)		+ (a “+” to indicate whether a particular T2R receptor showed a positive response to a particular API)	
C=CCC1(C(C)CCC)C(=O)NC(=O)NC1=O (stereo not drawn) [Secobarbital Sodium]		+ (a “+” to indicate whether a particular T2R receptor showed a positive response to a particular API)		
